Marks after values point to notes of the source that are not given here.
Legend:
[1] = test system: ovariectomized ICR female mice; experiment: Micro-CT bone tissue analysis of the right distal femur in ovariectomized mice (osteoporosis model); type: in vivo; settings: 32nd day after ovariectomy, GKM3/GKS6 205 mg/kg oral gavage once/day for 28 days, Alen 2.5 mg/kg 3 times a week for 28 days, n = 6
[2] = test system: ovariectomized ICR female mice; experiment: Bone mineral density (BMD) of the femur in ovariectomized mice; type: in vivo; settings: right femur, 32nd day after ovariectomy; GKM3/GKS6 205 mg/kg oral gavage once/day for 28 days; Alen 2.5 mg/kg 3 times a week for 28 days; n = 6
Description: In this embodiment, GKM3 and GKS6 powders were each prepared in a 0.5% (w/v) carboxymethylcellulose (CMC) solution as a suspension with a concentration of 205 mg/mL The vehicle group used 0.5% (w/v) CMC solution.
Because bone metabolism is closely related to estrogen, mice with bilateral ovariectomy were used as a model for studying osteoporosis in postmenopausal animals. After the recovery period of 1 to 2 weeks after the bilateral ovariectomy, mice were randomly assigned to different treatment groups.
In this embodiment, 8-week-old ICR female mice were purchased from BioLASCO Taiwan Co., Ltd., and ovariectomy (OVX) was performed when they were 9 weeks old. […]
Computerized tomography images of the right distal femur of ICR mice were obtained by a micro-computed tomography (micro-CT) scanner (SkyScan 1076, Kontizh, Belgium) with a resolution of 18 μm and were analyzed by a software to obtain the trabecular bone volume density (i.e., bone volume/tissue volume, BV/TV), the trabecular thickness (Tb.Th), the trabecular number (Tb.N), and the trabecular spacing (Tb.Sp). The analyzed position was selected to include the area of 100 pieces under the growth plate but not the cortical bone. […]
The bone density (mass/volume) was detected by the micro-CT. […]
The obtained data in the experiments were analyzed with one-way analysis of variance (one-way ANOVA) and the Duncan's multiple range test. […]

For `NCCCC(O)(P(=O)(O)O)P(=O)(O)O` [Alen, alendronate], the “Femur Tb.N” value [1] was 3.3 ± 0.1 No./mm, the “Femur Tb.Sp” value [1] was 232.9 ± 25.9 μm and the “Femur Tb.Th” value [1] was 109.9 ± 3.9 μm. For the same molecule, the “Femur BMD” value [2] was 0.60 ± 0.02* g/cm^3.

Reference: patent publication US20190321420A1, “METHOD AND COMPOSITION FOR PREVENTING, TREATING OR RELIEVING BONE DISEASES” (GRAPE KING BIO Ltd., priority 2018, published 2019)
